Test results from patent US20230150926A1, “CATIONIC LIPIDS FOR LIPID NANOPARTICLE DELIVERY OF THERAPEUTICS TO HEPATIC STELLATE CELLS” (GENEVANT SCIENCES GMBH, priority 2020, published 2023).

What was measured:
[1] = test system: reelin mRNA (RELN), a stellate cell target; test: Reelin (RELN) mRNA knock-down in liver after IV administration of siRNA LNP (QuantiGene, RELN:GAPD mRNA ratio); assay type: in vivo, Balb/C mice; conditions: for reelin mRNA knock-down, activity at high dose: 1 mg/kg dose and greater
Method: The lipid solution contained 4 components: a PEG-conjugated lipid, an ionizable lipid, cholesterol, and a phospholipid (e.g., DSPC). Lipid stocks were prepared using the lipid identities and molar ratios as described. The siRNA was diluted in 100 mM acetate, pH 4 buffer to prepare lipid nanoparticles (LNP) at a total lipid to siRNA weight ratio of approximately 10:1 to 20:1. Equal volumes of the lipid and nucleic acid solutions were blended at a flow rate of 400 mL/min through a T-connector, and diluted into PBS, pH 7.4. The ethanol was then removed and the external buffer replaced with Tris/NaCl buffer by dialysis. Following dialysis, the formulations were concentrated using VivaSpin concentrator units (MWCO 100,000) and filtered through a 0.2 µm pore sterile filter. Nucleic acid concentration was determined by the RiboGreen assay. Particle size and polydispersity were determined using a Malvern Nano Series Zetasizer.
Generally, the LNP formulations were injected intravenously at 0.025 mg/kg to female Balb/C mice (5-8 weeks old) to measure activity of the HSC-LNP. Just prior to injection, the siRNA LNP stocks were filtered and diluted down to the required dosing concentration. […] Half the left lateral lobe of the liver was collected into 1.5 mL RNALater and stored at 2-8° C. overnight. The next day, an approximately 20-25 mg piece of liver was homogenized and the liver lysate used in a QuantiGene Assay, testing for relative levels of mouse target mRNA and GAPDH expression. Data from each animal was normalized to the liver weight used in the assay, and then relative to the GAPDH signal; data is reported as the average % knockdown of each group (where the PBS control group is 100% gene expression, 0% knockdown).

[2] = Tolerability assessment: serum liver enzyme levels (ALT/AST) after IV administration of LNP; assay type: in vivo, Balb/C mice; conditions: FIG. 4; 24 hours following IV administration of LNP; 0.03, 1, 3 mg/kg; relative to comparator lipid
Method: Generally, the LNP formulations were injected intravenously at ~0.03 to 3 mg/kg to female Balb/C mice (5-8 weeks old) to assess tolerability of the HSC-LNP. Just prior to injection, the siRNA LNP stocks were filtered and diluted down to the required dosing concentration. At 2 h post-treatment, blood was collected via tail nicks and processed to plasma (for cytokine analysis by ELISA). At the terminal timepoint (24 h post-dose), blood was collected by cardiac puncture (target ≥ 800 µL) and sent to IDEXX for CRES 15 panel analysis (CBC/Diff & Clin Chem analysis). Briefly, blood (~300 uL) was collected into EDTA microtainer tubes, inverted 10x to mix the K2EDTA whole blood sample, and immediately stored at 4° C. to await same-day shipment to for hematology analysis. The remaining blood volume (~500 uL) was collected into serum separator tubes and inverted 5× to mix the SST sample, then allowed to clot for 1-1.5 h at room temp. The blood samples were centrifuged, and serum was collected for clinical chemistry analysis.

[3] = FIG. 3, 24 hours following IV administration of LNP

Structure (SMILES)	reelin mRNA knock-down, activity at high dose [1, 3]	knock-down as indicated by the RELN:GAPD mRNA ratio ([1]; FIG. 1, 0.1 mg/kg, versus comparator lipid and PBS)	reelin mRNA knock-down, potency relative to comparator lipid ([1]; FIG. 2, 48 hours following IV administration of LNP, Balb/C mice (n=4))	reelin mRNA knock-down, potency relative to comparator lipid ([1]; FIG. 3, 24 hours following IV administration of LNP, low dose of 0.03 mg/kg)	potency relative to comparator lipid, as restated in the tolerability figure ([1]; FIG. 4 legend, no dose stated)	liver enzyme levels (ALT/AST) in serum [2]
CCCCC/C=C\CCCC(CCC/C=C\CCCCC)C(CCC/C=C\CCCCC)OC(=O)CCCCCN(C)C (stereo not shown) [compound 100, reference compound]	Saturating activity					
CCCCC/C=C\CCCC(=O)OC(CCC/C=C\CCCCC)C(CCC/C=C\CCCCC)OC(=O)CCCCCN(C)C (stereo not shown) [representative lipid of the invention]	Saturating activity	excellent knock-down	equivalent potency to a comparator lipid at 4-fold lower dose	significantly more potent than the comparator lipid	significantly more potent	slightly higher liver enzyme levels relative to the comparator lipid
